Measurements as given in the supplement of paper PMC10307832.

Legend:
Experiment in all cases: relative viability (nuclei count vs DMSO), 5 days (fraction); higher = more cells survive
AT9283 + Linsitinib = compound: O=C(Nc1c[nH]nc1-c1nc2ccc(CN3CCOCC3)cc2[nH]1)NC1CC1 [AT9283] + C[C@]1(O)C[C@@H](c2nc(-c3ccc4ccc(-c5ccccc5)nc4c3)c3c(N)nccn32)C1 [Linsitinib] (partner 1 µM)
Procedure, shortened: (§1)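 Relative viability was taken as the ratio of nuclei in treated wells to nuclei in vehicle wells. Lung cancer cell lines in 1536-well plates received compounds by pin tool one day after seeding, either one drug alone or a fixed anchor-drug dose plus five library-drug doses (not always all listed) in √10 steps. Nuclei were counted on 4× images after 5 days of treatment, and values are medians of duplicate plates.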

Erlotinib + Linsitinib = compound: C#Cc1cccc(Nc2ncnc3cc(OCCOC)c(OCCOC)cc23)c1 [Erlotinib] + C[C@]1(O)C[C@@H](c2nc(-c3ccc4ccc(-c5ccccc5)nc4c3)c3c(N)nccn32)C1 [Linsitinib] (partner 1 µM)
Procedure, shortened: as §1

AT9283 + Trametinib = compound: O=C(Nc1c[nH]nc1-c1nc2ccc(CN3CCOCC3)cc2[nH]1)NC1CC1 [AT9283] + CC(=O)Nc1cccc(-n2c(=O)n(C3CC3)c(=O)c3c(Nc4ccc(I)cc4F)n(C)c(=O)c(C)c32)c1 [Trametinib] (partner 0.02 µM)
Procedure, shortened: as §1

Erlotinib + Phenformin = compound: C#Cc1cccc(Nc2ncnc3cc(OCCOC)c(OCCOC)cc23)c1 [Erlotinib] + N=C(N)NC(=N)NCCc1ccccc1 [Phenformin] (partner 250 µM)
Procedure, shortened: as §1

AT9283 + Olaparib = compound: O=C(Nc1c[nH]nc1-c1nc2ccc(CN3CCOCC3)cc2[nH]1)NC1CC1 [AT9283] + O=C(c1cc(Cc2n[nH]c(=O)c3ccccc23)ccc1F)N1CCN(C(=O)C2CC2)CC1 [Olaparib] (partner 8 µM)
Procedure, shortened: as §1

Cell Line	relative viability (AT9283 + Linsitinib; first compound 0.003 µM)	relative viability (AT9283 + Linsitinib; first compound 0.03 µM)	relative viability (AT9283 + Linsitinib; first compound 0.09487 µM)	relative viability (AT9283 + Linsitinib; first compound 0.3 µM)	relative viability (Erlotinib + Linsitinib; first compound 0.02 µM)	relative viability (Erlotinib + Linsitinib; first compound 0.2 µM)	relative viability (Erlotinib + Linsitinib; first compound 0.6325 µM)	relative viability (Erlotinib + Linsitinib; first compound 2 µM)	relative viability (AT9283 + Trametinib; first compound 0.003 µM)	relative viability (AT9283 + Trametinib; first compound 0.03 µM)	relative viability (AT9283 + Trametinib; first compound 0.09487 µM)	relative viability (AT9283 + Trametinib; first compound 0.3 µM)	relative viability (Erlotinib + Phenformin; first compound 0.02 µM)	relative viability (Erlotinib + Phenformin; first compound 0.2 µM)	relative viability (Erlotinib + Phenformin; first compound 0.6325 µM)	relative viability (Erlotinib + Phenformin; first compound 2 µM)	relative viability (AT9283 + Olaparib; first compound 0.003 µM)	relative viability (AT9283 + Olaparib; first compound 0.03 µM)	relative viability (AT9283 + Olaparib; first compound 0.09487 µM)	relative viability (AT9283 + Olaparib; first compound 0.3 µM)
HCC-44	0.628	0.745	0.148	0.14	0.663	0.664	0.723	0.61	0.923	1.07	0.635	0.938	0.239	0.162	0.22	0.165	1.01	0.963	0.724	0.817
HCC-78	0.475	0.41	0.172	0.185	0.5	0.439	0.401	0.383	0.794	0.745	0.353	0.222	0.657	0.681	0.684	0.531	0.909	0.599	0.273	0.249
HCC-366	0.71	0.319	0.0197	0.0206	0.752	0.52	0.574	0.564	0.349	0.256	0.173	0.0874	0.599	0.661	0.601	0.567	0.362	0.262	0.113	0.0721
HCC-827	0.995	0.843	0.463	0.371	0.281	0.188	0.173	0.166	0.492	0.437	0.257	0.204	0.232	0.144	0.139	0.133	0.702	0.53	0.344	0.255
HOP-62	0.927	0.721	0.178	0.173	1.14	0.959	1.01	0.912	0.384	0.431	0.194	0.188	0.726		0.711	0.689	0.514	0.308	0.137	0.201
IA-LM	0.626	0.432	0.311	0.102	0.62	0.578	0.55	0.595									0.998	0.524	0.243	0.145
LC-2-ad	0.847	0.257	0.116	0.112	0.889	0.823	0.76	0.611	0.872	0.707	0.5	0.236	0.566	0.643	0.592	0.534	0.708	0.647	0.304	0.196
LCLC-97TM1	0.184	0.156	0.107	0.0936	0.212		0.196	0.196	0.203	0.159	0.119	0.123	0.405	0.412	0.439	0.379	0.41	0.233	0.103	0.0959
